pEC50: −log10 of the molar value. Where two headings read alike, the source gives them in different places.
Key:
[1] = target: human CB1 receptor (hCB1) (Homo sapiens, UniProt P21554); experiment: cell-based; format: cell-based; conditions: for +/− HCB1: agonist or inverse agonist at hCB1; for EC50: groups >100 nM-10 μM and >10 μM, cAMP, CHO-K1 hCB1, read-out: EC50 HCB1
How it was run: (§1)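 First, cells in IBMX-containing HEPES-buffered HBSS are raised to elevated cAMP with 2-8 μM NKH-477 for 30 min. Data are normalised to the forskolin and forskolin + 1 μM CP55,940 controls.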

rat CB2 receptor (rCB2) = target: T1, rat CB2 receptor (rCB2) (Rattus norvegicus, UniProt Q9QZN9); experiment: cell-based; format: cell-based; conditions: for +/− RCB2: agonist or inverse agonist at rCB2
T1 sequence (Q9QZN9 1-360): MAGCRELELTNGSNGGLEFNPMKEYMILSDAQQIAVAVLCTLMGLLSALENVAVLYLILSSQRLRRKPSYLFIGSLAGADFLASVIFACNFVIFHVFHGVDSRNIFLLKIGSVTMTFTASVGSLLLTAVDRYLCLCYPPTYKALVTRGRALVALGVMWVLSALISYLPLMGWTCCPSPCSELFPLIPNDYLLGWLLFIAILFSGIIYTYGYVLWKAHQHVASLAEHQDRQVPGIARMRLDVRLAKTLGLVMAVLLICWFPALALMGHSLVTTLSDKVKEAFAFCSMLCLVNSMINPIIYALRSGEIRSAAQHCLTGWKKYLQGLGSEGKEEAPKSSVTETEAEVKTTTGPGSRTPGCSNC
How it was run: as §1

human CB1 receptor (hCB1), sequence (P21554 whole entry): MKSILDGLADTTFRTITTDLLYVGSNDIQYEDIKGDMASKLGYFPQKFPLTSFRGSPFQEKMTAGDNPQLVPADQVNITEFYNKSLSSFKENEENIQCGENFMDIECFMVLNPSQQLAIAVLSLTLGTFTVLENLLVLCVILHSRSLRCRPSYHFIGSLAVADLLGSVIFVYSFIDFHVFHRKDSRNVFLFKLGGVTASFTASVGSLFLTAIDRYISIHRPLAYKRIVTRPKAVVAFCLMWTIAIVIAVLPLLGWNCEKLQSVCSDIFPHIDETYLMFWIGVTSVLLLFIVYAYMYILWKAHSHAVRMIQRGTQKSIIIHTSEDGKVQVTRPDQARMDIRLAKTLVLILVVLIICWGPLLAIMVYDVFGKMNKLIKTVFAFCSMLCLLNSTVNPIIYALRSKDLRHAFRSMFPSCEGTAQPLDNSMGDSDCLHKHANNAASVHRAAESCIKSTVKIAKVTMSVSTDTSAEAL

For `CNC(=O)[C@@H](NC(=O)c1nc(C(C)C(F)(F)F)n2c1CN(C)CCC2)C(C)(C)C` (stereo partly drawn) [Compound 505, N-((S)-3,3-dimethyl-1-(methylamino)-1-oxobutan-2-yl)-8-methyl-3-(1,1,1-trifluoropropan-2-yl)-6,7,8,9-tetrahydro-5H-imidazo[1,5-a][1,4]diazepine-1-carboxamide], the “+/− HCB1” value [1] was “+” and the “+/− RCB2” value (rat CB2 receptor (rCB2)) was “+”.

For `CNC(=O)[C@@H](NC(=O)c1nc(C(C)c2ccccc2)n2c1CN(C)CCC2)C(C)(C)C` (stereo partly drawn) [Compound 506, N-((S)-3,3-dimethyl-1-(methylamino)-1-oxobutan-2-yl)-8-methyl-3-(1-phenylethyl)-6,7,8,9-tetrahydro-5H-imidazo[1,5-a][1,4]diazepine-1-carboxamide], the “+/− HCB1” value [1] was “+” and the “+/− RCB2” value (rat CB2 receptor (rCB2)) was “+”.

With `CNC(=O)[C@@H](NC(=O)c1nc(C(C)C(C)C)n2c1CN(C)CCC2)C(C)(C)C` (stereo partly drawn) [Compound 507, N-((S)-3,3-dimethyl-1-(methylamino)-1-oxobutan-2-yl)-8-methyl-3-(3-methylbutan-2-yl)-6,7,8,9-tetrahydro-5H-imidazo[1,5-a][1,4]diazepine-1-carboxamide] the “+/− HCB1” value [1] was “+” and the “+/− RCB2” value (rat CB2 receptor (rCB2)) was “+”.

For `CNC(=O)[C@@H](NC(=O)c1nc(CCCCO)n2c1CN(C)CCC2)C(C)(C)C` [Compound 508, (S)-N-(3,3-dimethyl-1-(methylamino)-1-oxobutan-2-yl)-3-(4-hydroxybutyl)-8-methyl-6,7,8,9-tetrahydro-5H-imidazo[1,5-a][1,4]diazepine-1-carboxamide], the “+/− HCB1” value [1] was “+” and the pEC50 (rat CB2 receptor (rCB2)) was less than 5.00.

`CNC(=O)[C@@H](NC(=O)c1nc(/C=C/CN2CCOCC2)n2c1CN(C)CCC2)C(C)(C)C` [Compound 509, (S,E)-N-(3,3-dimethyl-1-(methylamino)-1-oxobutan-2-yl)-8-methyl-3-(3-morpholinoprop-1-enyl)-6,7,8,9-tetrahydro-5H-imidazo[1,5-a][1,4]diazepine-1-carboxamide] gave a pEC50 [1] of less than 5.00 and a pEC50 (rat CB2 receptor (rCB2)) of less than 5.00.

`CNC(=O)[C@@H](NC(=O)c1nc(/C=C/CN2CCCCC2)n2c1CN(C)CCC2)C(C)(C)C` [Compound 510, (S,E)-N-(3,3-dimethyl-1-(methylamino)-1-oxobutan-2-yl)-8-methyl-3-(3-(piperidin-1-yl)prop-1-enyl)-6,7,8,9-tetrahydro-5H-imidazo[1,5-a][1,4]diazepine-1-carboxamide] was tested, and the pEC50 [1] was less than 5.00 and the “+/− RCB2” value (rat CB2 receptor (rCB2)) was “+”.

`CNC(=O)[C@@H](NC(=O)c1nc(/C=C/CN2CCCC2)n2c1CN(C)CCC2)C(C)(C)C` [Compound 511, (S,E)-N-(3,3-dimethyl-1-(methylamino)-1-oxobutan-2-yl)-8-methyl-3-(3-(pyrrolidin-1-yl)prop-1-enyl)-6,7,8,9-tetrahydro-5H-imidazo[1,5-a][1,4]diazepine-1-carboxamide] was tested, and the pEC50 [1] was less than 5.00 and the “+/− RCB2” value (rat CB2 receptor (rCB2)) was “+”.

`CCN(CC)C/C=C/c1nc(C(=O)N[C@H](C(=O)NC)C(C)(C)C)c2n1CCCN(C)C2` [Compound 512, (S,E)-3-(3-(diethylamino)prop-1-enyl)-N-(3,3-dimethyl-1-(methylamino)-1-oxobutan-2-yl)-8-methyl-6,7,8,9-tetrahydro-5H-imidazo[1,5-a][1,4]diazepine-1-carboxamide] showed a pEC50 [1] of less than 5.00 and a pEC50 (rat CB2 receptor (rCB2)) of less than 5.00.

For `CNC(=O)[C@@H](NC(=O)c1nc(/C=C/CN(C)C)n2c1CN(C)CCC2)C(C)(C)C` [Compound 513, (S,E)-N-(3,3-dimethyl-1-(methylamino)-1-oxobutan-2-yl)-3-(3-(dimethylamino)prop-1-enyl)-8-methyl-6,7,8,9-tetrahydro-5H-imidazo[1,5-a][1,4]diazepine-1-carboxamide], the pEC50 [1] was less than 5.00 and the “+/− RCB2” value (rat CB2 receptor (rCB2)) was “−”.

With `CNC(=O)[C@@H](NC(=O)c1nc(/C=C/CCO)n2c1CN(C)CCC2)C(C)(C)C` [Compound 514, (S,E)-N-(3,3-dimethyl-1-(methylamino)-1-oxobutan-2-yl)-3-(4-hydroxybut-1-enyl)-8-methyl-6,7,8,9-tetrahydro-5H-imidazo[1,5-a][1,4]diazepine-1-carboxamide] the “+/− HCB1” value [1] was “+” and the “+/− RCB2” value (rat CB2 receptor (rCB2)) was “+”.

With `CC(C)(C)OC(=O)N1CCCn2c(-c3ccccc3)nc(C(=O)N[C@H](C(=O)O)C(C)(C)C)c2C1` [Compound 515, (S)-2-(8-(tert-butoxycarbonyl)-3-phenyl-6,7,8,9-tetrahydro-5H-imidazo[1,5-a][1,4]diazepine-1-carboxamido)-3,3-dimethylbutanoic acid] the EC50 [1] was greater than 10000 nM and the “+/− RCB2” value (rat CB2 receptor (rCB2)) was “−”.

With `Cc1ccc(-c2nc(C(=O)N[C@H](C(=O)O)C(C)(C)C)c3n2CCCN(C(=O)OC(C)(C)C)C3)c(F)c1` [Compound 516, (S)-2-(8-(tert-butoxycarbonyl)-3-(2-fluoro-4-methylphenyl)-6,7,8,9-tetrahydro-5H-imidazo[1,5-a][1,4]diazepine-1-carboxamido)-3,3-dimethylbutanoic acid] the pEC50 [1] was less than 5.00 and the “+/− RCB2” value (rat CB2 receptor (rCB2)) was “−”.

`Cc1noc([C@@H](NC(=O)c2nc(-c3ccccc3)n3c2CN(C(=O)OC(C)(C)C)CCC3)C(C)(C)C)n1` [Compound 517, (S)-tert-butyl 1-(2,2-dimethyl-1-(3-methyl-1,2,4-oxadiazol-5-yl)propylcarbamoyl)-3-phenyl-6,7-dihydro-5H-imidazo[1,5-a][1,4]diazepine-8(9H)-carboxylate] was tested, and the EC50 [1] was greater than 10000 nM and the “+/− RCB2” value (rat CB2 receptor (rCB2)) was “−”.

With `Cc1ccc(-c2nc(C(=O)N[C@H](c3nc(C)no3)C(C)(C)C)c3n2CCCN(C(=O)OC(C)(C)C)C3)c(F)c1` [Compound 518, (S)-tert-butyl 1-(2,2-dimethyl-1-(3-methyl-1,2,4-oxadiazol-5-yl)propylcarbamoyl)-3-(2-fluoro-4-methylphenyl)-6,7-dihydro-5H-imidazo[1,5-a][1,4]diazepine-8(9H)-carboxylate] the pEC50 [1] was less than 5.00 and the “+/− RCB2” value (rat CB2 receptor (rCB2)) was “−”.

`Cc1noc([C@@H](NC(=O)c2nc(-c3ccccc3)n3c2CNCCC3)C(C)(C)C)n1` [Compound 519, (S)-N-(2,2-dimethyl-1-(3-methyl-1,2,4-oxadiazol-5-yl)propyl)-3-phenyl-6,7,8,9-tetrahydro-5H-imidazo[1,5-a][1,4]diazepine-1-carboxamide] was tested, and the pEC50 [1] was less than 5.00 and the “+/− RCB2” value (rat CB2 receptor (rCB2)) was “+”.

In the case of `Cc1ccc(-c2nc(C(=O)N[C@H](c3nc(C)no3)C(C)(C)C)c3n2CCCNC3)c(F)c1` [Compound 520, (S)-N-(2,2-dimethyl-1-(3-methyl-1,2,4-oxadiazol-5-yl)propyl)-3-(2-fluoro-4-methylphenyl)-6,7,8,9-tetrahydro-5H-imidazo[1,5-a][1,4]diazepine-1-carboxamide], the pEC50 [1] was less than 5.00 and the “+/− RCB2” value (rat CB2 receptor (rCB2)) was “−”.

In the case of `Cc1noc([C@@H](NC(=O)c2nc(-c3ccccc3)n3c2CN(C)CCC3)C(C)(C)C)n1` [Compound 521, (S)-N-(2,2-dimethyl-1-(3-methyl-1,2,4-oxadiazol-5-yl)propyl)-8-methyl-3-phenyl-6,7,8,9-tetrahydro-5H-imidazo[1,5-a][1,4]diazepine-1-carboxamide], the pEC50 [1] was less than 5.00 and the “+/− RCB2” value (rat CB2 receptor (rCB2)) was “+”.

For `Cc1ccc(-c2nc(C(=O)N[C@H](c3nc(C)no3)C(C)(C)C)c3n2CCCN(C)C3)c(F)c1` [Compound 522, (S)-N-(2,2-dimethyl-1-(3-methyl-1,2,4-oxadiazol-5-yl)propyl)-3-(2-fluoro-4-methylphenyl)-8-methyl-6,7,8,9-tetrahydro-5H-imidazo[1,5-a][1,4]diazepine-1-carboxamide], the pEC50 [1] was less than 5.00 and the “+/− RCB2” value (rat CB2 receptor (rCB2)) was “−”.

`Cc1ccc(-c2nc(C(=O)N[C@H](c3nc(C)no3)C(C)(C)C)c3n2CCCN(C(C)C)C3)c(F)c1` [Compound 523, (S)-N-(2,2-dimethyl-1-(3-methyl-1,2,4-oxadiazol-5-yl)propyl)-3-(2-fluoro-4-methylphenyl)-8-isopropyl-6,7,8,9-tetrahydro-5H-imidazo[1,5-a][1,4]diazepine-1-carboxamide] was tested, and the pEC50 [1] was less than 5.00 and the “+/− RCB2” value (rat CB2 receptor (rCB2)) was “−”.

In the case of `CCN1CCCn2c(-c3ccccc3)nc(C(=O)N[C@H](c3nc(C)no3)C(C)(C)C)c2C1` [Compound 524, (S)-N-(2,2-dimethyl-1-(3-methyl-1,2,4-oxadiazol-5-yl)propyl)-8-ethyl-3-phenyl-6,7,8,9-tetrahydro-5H-imidazo[1,5-a][1,4]diazepine-1-carboxamide], the pEC50 [1] was less than 5.00 and the “+/− RCB2” value (rat CB2 receptor (rCB2)) was “−”.

For `Cc1noc([C@@H](NC(=O)c2nc(-c3ccccc3)n3c2CN(C(C)C)CCC3)C(C)(C)C)n1` [Compound 525, (S)-N-(2,2-dimethyl-1-(3-methyl-1,2,4-oxadiazol-5-yl)propyl)-8-isopropyl-3-phenyl-6,7,8,9-tetrahydro-5H-imidazo[1,5-a][1,4]diazepine-1-carboxamide], the pEC50 [1] was less than 5.00 and the “+/− RCB2” value (rat CB2 receptor (rCB2)) was “−”.

`CNC(=O)[C@@H](NC(=O)c1nc(-c2ccc(Cl)cc2F)n2c1CN(C1CCN(C(C)=O)CC1)CCC2)C(C)(C)C` [Compound 527, (S)-8-(1-acetylpiperidin-4-yl)-3-(4-chloro-2-fluorophenyl)-N-(3 3-dimethyl-1-(methylamino)-1-oxobutan-2-yl)-6,7,8,9-tetrahydro-5H-imidazo[1,5-a][1,4]diazepine-1-carboxamide] was tested, and the pEC50 [1] was less than 5.00 and the “+/− RCB2” value (rat CB2 receptor (rCB2)) was “−”.

For `CNC(=O)[C@@H](NC(=O)c1nc(C2CCC(F)(F)CC2)n2c1CN(C)CCC2)C(C)(C)C` [Compound 528, (S)-3-(4,4-difluorocyclohexyl)-N-(3,3-dimethyl-1-(methylamino)-1-oxobutan-2-yl)-8-methyl-6,7,8,9-tetrahydro-5H-imidazo[1,5-a][1,4]diazepine-1-carboxamide], the pEC50 [1] was less than 5.00 and the “+/− RCB2” value (rat CB2 receptor (rCB2)) was “+”.
